For ten compounds, inhibition results are on record in US4536346A, “Aralkanamidophenyl compounds” (American Cyanamid Company, priority 1983, dated 1985).

This assay addresses T1, fatty acyl CoA: cholesterol acyl transferase (ACAT) (Rattus norvegicus, UniProt O70536).
T1 construct: The supernatant, containing the microsomal fraction, served as the source of the cholesterol-esterifying enzyme; from tissue; host or cells: rat adrenals (1,000 x g supernatant containing the microsomal fraction)
T1 sequence (O70536 1-545): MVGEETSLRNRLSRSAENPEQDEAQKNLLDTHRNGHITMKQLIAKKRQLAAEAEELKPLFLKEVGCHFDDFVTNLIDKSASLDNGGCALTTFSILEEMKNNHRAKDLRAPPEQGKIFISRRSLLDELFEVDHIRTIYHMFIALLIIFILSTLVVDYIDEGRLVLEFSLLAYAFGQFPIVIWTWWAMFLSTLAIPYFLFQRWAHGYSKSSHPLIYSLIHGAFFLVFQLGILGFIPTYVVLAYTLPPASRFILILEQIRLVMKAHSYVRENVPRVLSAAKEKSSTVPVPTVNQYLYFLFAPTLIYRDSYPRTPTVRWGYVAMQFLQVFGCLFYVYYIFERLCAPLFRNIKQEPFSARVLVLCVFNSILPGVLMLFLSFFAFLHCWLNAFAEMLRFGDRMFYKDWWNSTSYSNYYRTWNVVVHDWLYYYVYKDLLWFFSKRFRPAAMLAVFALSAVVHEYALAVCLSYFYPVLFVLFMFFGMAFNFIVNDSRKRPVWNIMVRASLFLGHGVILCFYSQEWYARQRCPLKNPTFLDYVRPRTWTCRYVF
The assay is described as follows: Inhibition of enzymatic esterification of cholesterol (ACAT) in rat adrenal supernatant containing the microsomal fraction. In kind it is biochemical. As to conditions: final concentration of test compound 5.2 μg./ml., percent inhibition of the ACAT enzyme compared to control values. The procedure: The compounds of the present invention were tested for their ability to inhibit the enzymatic esterification of cholesterol according to the following procedure:
Rat adrenals were homogenized in 0.2M monobasic potassium phosphate buffer, pH 7.4, and centrifuged at 1,000 times gravity for 15 minutes at 5° C. The supernatant, containing the microsomal fraction, served as the source of the cholesterol-esterifying enzyme, fatty acyl CoA: cholesterol acyl transferase (ACAT). A mixture comprising 50 parts of adrenal supernatant, 10 parts of albumin (BSA) (50 mg./ml.), […], 3 parts of test compound, and 500 parts of buffer was pre-incubated at 37° C. for 10 minutes. After treatment with 20 parts of oleoyl CoA (^14 C-0.4 μCi), the mixture was incubated at 37° C. for 10 minutes. A control mixture, omitting the test compound, was prepared and treated in the same manner. The lipids from the incubation mixture were extracted into an organic solvent and separated by thin-layer chromatography. The cholesterol ester fraction was counted in a scintillation counter. This procedure is a modification of that described by Hashimoto, et al., Life Scie., 12 (Part II), 1-12 (1973).
The results of this test on representative compounds of this invention appear in Table I. The final concentration of the test compound was 5.2 μg./ml., and the effectiveness of the compound is expressed as percent inhibition of the ACAT enzyme compared to control values.

Broadly, the inhibition is the percentage by which the read-out fell short of the control. Read a high inhibition as strong suppression. `COc1ccc(NC(=O)CC(c2ccc(OC)cc2)c2ccc(OC)cc2)cc1` [N--(p-Methoxyphenyl)-3,3-bis(4-methoxyphenyl)propionamide] gave an inhibition at 5.2 µg/mL of 58%.
With `COc1ccc(C(CC(=O)Nc2ccc([N+](=O)[O-])cc2)c2ccc(OC)cc2)cc1` [N--(p-Nitrophenyl)-3,3-bis(4-methoxyphenyl)propionamide] the figure was 94%; with `COc1ccc(C(CC(=O)Nc2ccc(C)cc2)c2ccc(OC)cc2)cc1` [N--(p-Tolyl)-3,3-bis(4-methoxyphenyl)propionamide], 97%.
With `Cc1ccc(NC(=O)CC(c2ccc(C)cc2)c2ccc(C)cc2)cc1` [N--(p-Tolyl)-3,3-bis(p-tolyl)propionamide] the figure was 66%; with `COc1ccc(C(CC(=O)Nc2ccc(C(F)(F)F)cc2)c2ccc(OC)cc2)cc1` [N--(p-Trifluoromethylphenyl)-3,3-bis(4-methoxyphenyl)propionamide], 92%.
With `Cc1ccc(C(CC(=O)Nc2ccc(C(F)(F)F)cc2)c2ccc(C)cc2)cc1` [N--(p-Trifluoromethylphenyl)-3,3-bis(p-tolyl)propionamide] the figure was 94%.
In turn, `COc1ccc(C(CC(=O)Nc2ccccc2)c2ccc(OC)cc2)cc1` [N--Phenyl-3,3-bis(4-methoxyphenyl)propionamide] came in with an inhibition at 5.2 µg/mL of 91%.
With `O=C(CC(c1ccc(Cl)cc1)c1ccc(Cl)cc1)Nc1ccccc1` [N--Phenyl-3,3-bis(p-chlorophenyl)propionamide] the figure was 50%.
Turning to `Cc1ccc(C(CC(=O)Nc2ccccc2)c2ccc(C)cc2)cc1` [N--Phenyl-3,3-bis(p-tolyl)propionamide], the inhibition at 5.2 µg/mL is 82%.
With `CCOC(=O)c1ccc(NC(=O)C=C(c2ccccc2)c2ccccc2)cc1` [p-(3,3-Diphenylacrylamido)benzoic acid, ethyl ester] the figure was 40%.
